This is an account of results in article doi:10.1101/2024.04.19.590212v1 (biorxiv, 2024).

Assay [1] deals with T1, 5-HT2CR (Homo sapiens, UniProt P28335). The following applies: agonist mode; partial agonist.
The target in assay [2] is T1, 5-HT2CR. The following applies: antagonist mode against 5-HT-induced response; incomplete inhibition.
In assay [3] the target is T2, 5-HT2AR (Homo sapiens, UniProt P28223). Description: cell-based. The following applies: U2OS, read-out: 5-HT2AR Rmax (beta-arrestin).
Assay [4] has as its target T2, 5-HT2AR. Description: cell-based. The following applies: U2OS, read-out: 5-HT2AR Rmax (internalization).
For assay [5], the target named is T1, 5-HT2CR. Briefly: cell-based.
Assay [6] concerns the target T1, 5-HT2CR. Briefly: cell-based. The source holds these as a separate data set.
Assay [7] concerns the target T3, 5-HT1BR (Homo sapiens, UniProt P28222). Briefly: cell-based.
Assay [8] addresses T3, 5-HT1BR. Briefly: cell-based. Conditions: CHO-K1, read-out: 5-HT1BR Rmax (cAMP).
Assay [9] addresses T3, 5-HT1BR. Description: cell-based. The source holds these as a separate data set.

Where two headings read alike, the source gives them in different places. Where only a bound is given, the exact number is not on record here.

T3 sequence (P28222 whole entry): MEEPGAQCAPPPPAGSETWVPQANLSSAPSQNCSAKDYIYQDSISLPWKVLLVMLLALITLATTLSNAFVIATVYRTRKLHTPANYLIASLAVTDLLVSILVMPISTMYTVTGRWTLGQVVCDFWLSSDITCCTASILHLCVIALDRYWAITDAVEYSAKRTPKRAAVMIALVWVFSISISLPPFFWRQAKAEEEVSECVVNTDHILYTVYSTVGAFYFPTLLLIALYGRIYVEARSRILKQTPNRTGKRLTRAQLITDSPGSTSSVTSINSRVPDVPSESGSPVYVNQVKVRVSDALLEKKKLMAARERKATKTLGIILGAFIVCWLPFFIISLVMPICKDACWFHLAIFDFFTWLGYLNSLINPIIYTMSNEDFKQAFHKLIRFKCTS
T1 sequence (P28335 33-458): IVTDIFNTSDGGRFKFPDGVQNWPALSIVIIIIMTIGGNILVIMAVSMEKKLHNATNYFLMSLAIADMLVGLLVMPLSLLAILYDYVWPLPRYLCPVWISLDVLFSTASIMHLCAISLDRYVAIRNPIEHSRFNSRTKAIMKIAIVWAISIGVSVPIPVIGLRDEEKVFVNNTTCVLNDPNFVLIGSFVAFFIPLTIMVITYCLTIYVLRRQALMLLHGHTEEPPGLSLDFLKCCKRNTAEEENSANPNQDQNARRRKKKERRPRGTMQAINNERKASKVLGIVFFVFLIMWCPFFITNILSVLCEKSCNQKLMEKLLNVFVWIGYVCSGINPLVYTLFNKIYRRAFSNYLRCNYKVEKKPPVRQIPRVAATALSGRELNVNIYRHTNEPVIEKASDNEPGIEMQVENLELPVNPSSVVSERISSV
T2 sequence (P28223 whole entry): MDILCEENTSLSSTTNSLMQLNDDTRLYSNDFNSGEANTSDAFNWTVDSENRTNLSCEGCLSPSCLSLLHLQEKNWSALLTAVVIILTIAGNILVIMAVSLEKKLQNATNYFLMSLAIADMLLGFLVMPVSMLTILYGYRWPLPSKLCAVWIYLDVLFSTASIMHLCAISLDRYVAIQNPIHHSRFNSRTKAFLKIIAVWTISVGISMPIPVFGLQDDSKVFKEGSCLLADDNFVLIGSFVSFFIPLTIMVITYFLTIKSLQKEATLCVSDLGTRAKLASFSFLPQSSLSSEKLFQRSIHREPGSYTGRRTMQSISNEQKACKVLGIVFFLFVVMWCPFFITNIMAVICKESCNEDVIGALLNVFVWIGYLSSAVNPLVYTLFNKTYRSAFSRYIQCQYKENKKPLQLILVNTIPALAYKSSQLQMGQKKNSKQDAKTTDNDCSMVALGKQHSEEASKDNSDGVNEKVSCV

As for `COc1cc(C(F)(F)F)c(OC)cc1[C@@H]1CCCNC1` [LPH-5, (S)-3-(2,5-dimethoxy-4-(trifluoromethyl)phenyl)piperidine], the EC50 is 110 [pEC50 6.96 ± 0.07] nM at 5-HT2CR [1], > 30000 nM at 5-HT2CR [6], 870 nM at 5-HT1BR [7] and > 30000 nM on 5-HT1BR [9]. Further, the IC50 is 300 [pIC50 6.52 ± 0.08] nM against 5-HT2CR [2] and 38 nM at 5-HT2CR [5]. Moreover, the Emax on 5-HT2AR [3] was 61 ± 11%; at 5-HT2AR [4], 94 ± 11%; on 5-HT1BR [8], 78%.
